Consider one compound from patent US20240181125A1, “COMPOSITIONS AND METHODS FOR SCARLESS WOUND HEALING IN DIABETES” (Washington University, priority 2022, published 2024).

Bridge positions count the residues as written; N and C are the ends. Peptide text beside a SMILES is read from it. * marks the point of attachment. FITC = O=C1OC2(c3ccc(O)cc3Oc3cc(O)ccc32)c2ccc(NC(=S)*)cc21

One data set relates to HaCaTs. In words: mRNA expression (RT-PCR), HaCaTs. Type of data set: cell-based, human. The note with it: high glucose and TGFβ1. Here is the method:
To determine the mRNA expression of the cells (HDFs, HaCaTs, and HAECs) treated with TGFβ1 (10 ng/ml) or TGFβ1 (10 ng/ml)/PTβR2I (10 μg/mL) under high glucose conditions, RNA was extracted using Trizol (Invitrogen) and reverse transcribed using a cDNA synthesis kit (Applied Biosystems). Gene expression was performed by real-time RT-PCR, using Maxima SYBR Green/Fluorescein Master Mix (Thermofisher) and selected primer pairs, shown in Table 1 below. β-actin served as the housekeeping gene. The ΔΔCt method was used for data analysis.

In data set [1] the test system is human keratinocyte HaCaT cells. In words: Cytotoxicity of PTβR2I on HaCaT cells. Type of data set: cell-based. More on the design: dose or concentration left out as unconfirmed. The note with it: 1 to 100.
The next data set concerns the target T1, TβR2 on HDFs (Homo sapiens, UniProt P37173).
T1 construct: host or cells: human dermal fibroblasts (HDFs)
In words: PTβR2I binding and competitive binding with TGFβ1 on HDFs (IF anti-TβR2, FITC intensity). Type of data set: cell-based. Conditions: 48 hours. Here is the method:
To test PTβR2I binding to cells, HDFs (Lonza) were seeded on type I collagen-coated cover glasses and inserted in a 6-well plate. After 24 hours, the following treatments were added into the wells: 1) PTβR2I solution (10 μg/mL) for 48 hours; 2) PTβR2I solution (10 μg/mL) for 24 hours, and then TGFβ1 (10 ng/ml) for another 24 hours; 3) TGFβ1 (10 ng/mL) for 24 hours, and then PTβR2I (10 μg/mL) for another 24 hours; and 4) both PTβR2I (10 μg/mL) and TGFβ1 (10 ng/ml) for 48 hours. Control wells contained HDF-seeded cover glasses without added PTβR2I or TGFβ1, and incubated for 48 hours. After the treatment, cells were fixed by 4% paraformaldehyde and blocked with 10% goat serum in Dulbecco's phosphate-buffered saline (DPBS). Primary antibody mouse anti-TβR2 (1:300, Santa Cruz) that was diluted in DPBS containing 3% BSA was incubated with the cells overnight at 4° C. The cells were washed three times with DPBS. A secondary antibody Alexa Fluro-647 (1:300, Fisher Scientific) was then applied for 2 h at room temperature, followed by incubating with DAPI (Millipore-Sigma) for five minutes.
To validate the above results, the fluorescence intensity of PTβR2I bound to the HDFs was measured for each treatment. Briefly, HDFs (Lonza) were seeded on type I collagen-coated 96-well black microplates. […] The fluorescence intensity was measured using the same microplate reader.

The next data set concerns TGFβ1/p-Smad2/3 pathway. In words: Immunoblotting/IF of p-Smad2/3 and α-SMA in HDFs. It is filed as cell-based, human. Here is the method: For in vitro tests, protein lysates were collected from HDFs. Pre-cooled cell scrapers were used to detach the cells, and the cells were re-suspended in RIPA lysis buffer with the inhibitor cocktail. For in vivo tests, wound skin tissues were washed three times with pre-cooled DPBS, dissected into small pieces, and re-suspended in RIPA lysis buffer containing protease and phosphatase inhibitors. Homogenization was then performed thereafter with an ultrasonic processor (Cole Parmer). After centrifugation at 12,000 g for 20 min, the supernatants were collected, and protein concentrations were measured using a Bradford protein assay kit (Bio-rad).
The protein samples were separated by 10% Mini-PROTEAN TGX stain-free precast gels (Bio-rad) and transferred onto an immune-blot PVDF membrane. The blots were washed three times with DPBS containing 0.1% Tween 20 (PBST), blocked with 5% milk powder in PBST buffer for 40 min, and incubated with primary antibodies at specific dilutions overnight at 4° C. The primary antibodies included rabbit GAPDH antibody (1:5000, Cell signaling), rabbit anti-a-smooth muscle actin (α-SMA) antibody (1:2000, Cell signaling), rabbit anti-phospho-Smad2(Ser465/467)/Smad3 (Ser423/425) (1:500, Cell signaling), and rabbit anti-phospho-p38 (1:500, Cell signaling). The membranes were washed three times with PBST and incubated with horseradish peroxidase (HRP)-conjugated secondary antibodies (1:2500). Immunoblots were then washed with PBST and detected with a WesternBright HRP substrate detection kit (Advansta). The ChemiDoc XPS+system (Bio-rad) was used to image the blots.
(In general: Immunoblotting shows a protein as a band on a membrane.)

Data set [2] in a line: In vitro release of peptide from hydrogel. Type of data set: physicochemical. The note with it: 21-day study, 37° C., DPBS; loadings 10, 20, 50 μg/mL. Here is the method:
To characterize the ECG release properties of the NIPAAm-based hydrogels disclosed herein, the following experiments were conducted. Hydrogel samples were synthesized with varying levels of ECG loading: 10 μg/mL, 20 μg/mL, and 50 μg/mL. The cumulative release of ECG from the hydrogel samples was assessed over a three-week period.
Wound dressings were fabricated by encapsulating PTβR2I in the hydrogel solution at 4° C. Briefly, PTβR2I solution was mixed with 6 wt. % hydrogel solution to reach final PTβR2I concentrations of 10 μg/mL, 20 μg/mL and 50 μg/mL. The mixtures were stirred at 4° C. for 12 hours. To determine PTβR2I release kinetics, the mixtures were first incubated at 37° C. to gel. After 1 hour, the supernatant was replaced by a release medium (DPBS with 1% P/S). The medium was then collected at pre-determined time points for 21 days, and a fresh release medium was added after each collection. The concentration of the released PTβR2I was determined by measuring the fluorescence intensity and calculating the corresponding concentration using a standard curve. The bioactivity of the released PTβR2I was evaluated by its ability to bind to the TβR2 on the HDFs. […] After 2 hours of incubation, the cells were washed three times with DPBS, and the fluorescence intensity was measured using a microplate reader (excitation/emission=485/535 nm).

T1 sequence (P37173 23-567): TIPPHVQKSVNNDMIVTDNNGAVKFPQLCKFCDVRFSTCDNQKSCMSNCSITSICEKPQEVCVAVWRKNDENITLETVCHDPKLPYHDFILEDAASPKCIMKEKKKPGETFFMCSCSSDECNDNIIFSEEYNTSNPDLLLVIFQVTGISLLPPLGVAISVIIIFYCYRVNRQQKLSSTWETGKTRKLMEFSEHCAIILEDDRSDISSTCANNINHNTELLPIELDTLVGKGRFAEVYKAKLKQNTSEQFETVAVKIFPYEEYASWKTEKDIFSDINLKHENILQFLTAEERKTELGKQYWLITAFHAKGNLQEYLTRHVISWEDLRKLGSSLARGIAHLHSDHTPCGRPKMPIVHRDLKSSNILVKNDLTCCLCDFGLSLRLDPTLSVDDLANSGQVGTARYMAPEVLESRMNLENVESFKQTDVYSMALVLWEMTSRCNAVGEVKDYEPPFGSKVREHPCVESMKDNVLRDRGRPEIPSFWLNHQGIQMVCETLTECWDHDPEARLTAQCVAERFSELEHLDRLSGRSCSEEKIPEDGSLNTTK

With `CC(C)C[C@@H]1NC(=O)CNC(=O)[C@@H](NC(=O)[C@@H](N)CCC(=O)O)CSSC[C@@H](C(=O)N[C@@H](CCCCNC(=S)Nc2ccc3c(c2)C(=O)OC32c3ccc(O)cc3Oc3cc(O)ccc32)C(=O)O)NC(=O)[C@H](CC(C)C)NC(=O)[C@H](CCCNC(=N)N)NC(=O)[C@H](Cc2c[nH]c3ccccc23)NC(=O)[C@H](C(C)C)NC(=O)[C@H](CCCNC(=N)N)NC(=O)[C@H](CC(=O)O)NC(=O)[C@@H]2CCCN2C(=O)[C@H](CCCNC(=N)N)NC(=O)CNC(=O)[C@H](C(C)C)NC(=O)[C@@H]2CCCN2C(=O)[C@H](CC(C)C)NC1=O` [PTβR2I, ECGLLPVGRPDRVWRLCK-FITC] (H-ECGLLPVGRPDRVWRLCK(FITC)-OH; disulfide 2-17; N-terminus and C-terminus assumed), in the data set on HaCaTs, the “IL1B mRNA expression” value is listed as “significantly reduced” and the “IL6 mRNA expression” value is on record as “significantly reduced”. The cell viability result in data set [1] was “no decrease in viability”. Further, on TβR2 on HDFs, the “fluorescent intensities of FITC-labeled PTβR2I whichever of PTβR2I or TGFβ1 bound first” value is on record as “consistent”. In the data set with TGFβ1/p-Smad2/3 pathway (high glucose), the “phosphorylation of Smad2/3, PTβR2I with TGFβ1 vs TGFβ1 alone” value is recorded as “no substantial difference” and the “α-SMA+ myofibroblast formation in presence of TGFβ1” value is given as “regardless of the addition of PTβR2I”. In addition, in the data set on TGFβ1/p-Smad2/3 pathway (high glucose, TGFβ1), the “expression of downstream marker α-SMA” value is “did not alter”. Further, the TGFβ1/p-Smad2/3 pathway entry with TGFβ1/p-Smad2/3 pathway (normal glucose) is listed as “apparently inhibited”. Moreover, the “release profile from wound dressing” value in data set [2] is “initial burst release was observed on the first day, followed by a slower and sustained release until day 21”.
